How the values were obtained:
[1] = test system: MSCs; assay: Transwell chemotactic assay of MSCs with chemokine receptor antagonists, media conditioned by rd10 retina; format: cell-based, mouse; details: towards media conditioned by rd10 (P18) retina; vs vehicle DMSO; working concentrations of Table 2
Procedure: (§1) Chemotactic assays were performed using transwell inserts (pore size, 8 μm, BD Biosciences—353182) and 12-well culture plates. To test migration towards defined chemokine gradients, lower chambers were loaded with 1.2 ml of SF DMEM/F-12-GlutaMAX medium with either mCcl5, mCxcl1, mCxcl10, mCxcl16 or a combination of Ccl5 and mCxcl16 (all 50 ng/ml, Peprotech). For tests of NMDA-damage, mice were sacrificed 24 hpi; rd10 mice were sacrificed at P18. Human retina were dissected and cultured for an initial 12 hours in Neurobasal A medium, as previously described. Afterwards, both mouse and human retina were cultured for 24 hours in SF DMEM/F-12-GlutaMAX and SF Neurobasal A (with or without 1 mM NMDA) respectively. 1.2 ml of the resulting conditioned medium were loaded in the lower chambers of the transwell. The upper chamber was loaded with 2×10^5 MSCs in SF medium. The medium used to resuspend MSCs was matched to the medium in the bottom chamber: either DMEM/F-12-GlutaMAX (to test migration towards medium conditioned by mouse retina) or Neurobasal A (to test migration towards medium conditioned by human retina). […]
(§2) Transwell plates were incubated for 1.5 hours at 37° C. […] For each insert, seven fields were imaged and analysed. Cells were automatically counted using a custom-made macro for the ImageJ software (US National Institutes of Health, Bethesda, Md., USA; http://rsb.info.nih.gov/ij/).

[2] = test system: MSCs; assay: Transwell chemotactic assay of MSCs with chemokine receptor antagonists, media conditioned by NMDA-damaged retina; format: cell-based, mouse; details: towards media conditioned by NMDA-damaged (24 hpi) retina; vs vehicle DMSO; working concentrations of Table 2
Procedure: as §1, §2

migration of MSCs in the presence of receptor inhibitors [1] | SMILES | migration of MSCs in the presence of receptor inhibitors [2]
not affected | NS(=O)(=O)c1c(Cl)ccc(NC(=O)Nc2cccc(Cl)c2Cl)c1O [Cxcr2 inhibitor, SB 332235] | not affected
significantly reduced | COc1cc(C(=O)NC2C[C@H]3CCC[C@@H](C2)N3CC(=O)Nc2ccccc2Cl)cc(OC)c1OC (stereo partly shown) [Cxcr6 inhibitor, ML 339] | significantly reduced
